Patent US5087284A, “5-substituted thiadiazole ureas and their use as herbicides” (Rhone-Poulenc, Inc., priority 1989, dated 1992)

What was measured:
Assay type in all cases: in vivo
crops and weed species = test: Pre- and post-emergence herbicide tests, overall assessment; settings: TABLES III-VI
Description: All crop and weed species were planted individually in 3" plastic pots containing potting soil. Four seeds each of corn, cotton, and snapbeans were seeded to a depth equal to the diameter of the seed. All other species were surface seeded and sprinkled with screened soil in an amount sufficient to cover the seed. Immediately after planting, all pots were watered by sub-irrigation in greenhouse trays. Pots for the pre-emergence phase were seeded one day before treatment.
Planting dates for the post-emergence phase were varied so that all seedlings would reach the desired stage of development simultaneously. The proper stage of seedling development for treatment in the post-emergence phase is as follows:
Compounds were tested at rates of application equivalent to 8 lbs. of actual compound per acre in a spray volume of 38 gallons per acre. Spray hood constants required to deliver the above volume are as follows:
Spray applications were made in a hood containing a removable belt and fixed spray nozzle. For passage through the spray hood, one pot of each specie (pre-emergence phase) was placed on the rear half of the flat. Treatments were removed to the greenhose after spraying. Watering during the observation period was done only by sub-irrigation.
Two weeks after treatment, pre- and post-emergence injury or control was visually rated, and the results were as shown in the following tables. Pre-emergence data are provided in TABLE III and post-emergence data are provided in TABLE IV, for compounds having the formula illustrated in TABLE I. Correspondingly, pre-emergence and post-emergence data, respectively, are set forth in TABLES V AND VI, for compounds having the formula illustrated in TABLE II.

Sinapis [1] = test: Field pre-emergence test, Sinapis; settings: reading 0 (no effect) to 10 (completely killed), the values are: rating score 0–10
Description: (§1) Forty rows, 70 feet long, were planted to weeds and crops. Two rows were planted on each bed. Beds were 40 inches apart from center to center. The two rows were about 10 inches apart on each. Beds were rolled prior to planting to provide a uniform smooth surface. Soil temperature at a depth of 11/2 inches was 66° F. at time of planting. Post-emergence applications were made by spraying bands across rows 10 feet wide using a self-propelled plot sprayer with a 10 foot boom equipped with Teejet 8001 flat spray nozzle tips and operated at 40 psi. A total of 84 fluid ounces of spray material was applied to three replicates. Each replicate plot was 10 feet wide by 66.67 feet long.
(§2) An additional 100 feet of crops and weeds shown in TABLES XIII and XIV were planted in the same manner as the above post-emergence plots. Soil temperature at planting was […] at a depth of 11/2 inches. […]
(§3) Eight days after the application, readings were made on the effect of the chemicals on each crop and weed in the post-emergence treatment. A reading of 0 was recorded if no effect was observed; 10 recorded if the plants were completely killed, and readings of 1 to 9 for intermediate kills. A second reading of the post-emergence treatments was made 14 days after the application.
(§4) Readings were made 14 and 20 days after the pre-emergence application.

Oats [2] = test: Field pre-emergence test, oats; settings: reading 0 (no effect) to 10 (completely killed), the values are: rating score 0–10
Description: as §1, §2, §3, §4

Wheat [3] = test: Field pre-emergence test, wheat; settings: reading 0 (no effect) to 10 (completely killed), the values are: rating score 0–10
Description: as §1, §2, §3, §4

Sinapis [4] = test: Field post-emergence test, Sinapis; settings: 2 lbs/acre, reading 0 (no effect) to 10 (completely killed), the values are: rating score 0–10
Description: as §1, §3

Oats [5] = test: Field post-emergence test, oats; settings: 2 lbs/acre, reading 0 (no effect) to 10 (completely killed), the values are: rating score 0–10
Description: as §1, §3

Wheat [6] = test: Field post-emergence test, wheat; settings: 2 lbs/acre, reading 0 (no effect) to 10 (completely killed), the values are: control rating (0–10 scale)
Description: as §1, §3

Compound | effectiveness applied to a variety of crops and weed species (crops and weed species) | selectivity when applied to a certain crop or weed species (crops and weed species) | further results
CSc1nnc(N(C)C(=O)N(C)C)s1 [Example 5, 1,1,3-trimethyl-3-[5-methylthio-3-(1,3,4-thiadiazolyl)] urea] | extremely effective |  | 
CNC(=O)Nc1nnc(SC)s1 [Example 26] | extremely effective |  | 
CNC(=O)Nc1nnc(C(F)(F)F)s1 [Example 1, 1-Methyl-3-[5-Trifluoromethyl-2-(1,3,4-Thiadiazolyl)] Urea] | extremely effective |  | PRE-EMERGENCY ACTIVITY, % CONTROL (Sinapis [1]; 1 lbs/acre): 10; PRE-EMERGENCY ACTIVITY, % CONTROL (Sinapis [1]; 2 lbs/acre): 10; PRE-EMERGENCY ACTIVITY, % CONTROL (Oats [2]; 1 lbs/acre): 10; PRE-EMERGENCY ACTIVITY, % CONTROL (Oats [2]; 2 lbs/acre): 10; PRE-EMERGENCY ACTIVITY, % CONTROL (Wheat [3]; 1 lbs/acre): 10; PRE-EMERGENCY ACTIVITY, % CONTROL (Wheat [3]; 2 lbs/acre): 10; POST-EMERGENCE ACTIVITY, % CONTROL (Sinapis [4]): 10; POST-EMERGENCE ACTIVITY, % CONTROL (Oats [5]): 9; POST-EMERGENCE ACTIVITY, % CONTROL (Wheat [6]): 10
CCc1nnc(NC(=O)N(C)C)s1 [Example 20] |  | more selective | 
CNC(=O)N(C)c1nnc(C(F)(F)F)s1 [Example 36] | extremely effective |  | 
C=CCNC(=O)Nc1nnc(C(F)(F)F)s1 [Example 12] |  |  | selectivity post-emergence versus pre-emergence (crops and weed species): control post-emergence growth, while have little effect in regard to pre-emergence
CCNC(=O)Nc1nnc(C(F)(F)F)s1 [Example 9] |  | more selective | 
CCN(C(=O)NC)c1nnc(C(F)(F)F)s1 [Example 37] | extremely effective |  | 
CN(C)C(=O)Nc1nnc(C(F)(F)F)s1 [Example 2, 1,1-Dimethyl-3-[5-Trifluoromethyl-2-(1,3,4-Thiadiazolyl)] Urea] | extremely effective |  | 
O=C(Nc1ccc(Cl)c(Cl)c1)Nc1nnc(C(F)(F)F)s1 [Example 16] |  | more selective | 
CNC(=O)Nc1nnc(COC)s1 [Example 25] |  | more selective | 
CNC(=O)Nc1nncs1 [Example 35] |  | more selective | 
CNC(=O)Nc1nnc(CC(C)C)s1 [Example 21] |  | more selective | 
Cc1nnc(NC(=O)N(C)C)s1 [Example 19] |  |  | selectivity post-emergence versus pre-emergence (crops and weed species): The converse of this relationship
O=C(Nc1ccc(Cl)cc1)Nc1nnc(C(F)(F)F)s1 [Example 15] |  | more selective | 
